The structures appear in SMILES notation.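 96-well plates; 48 h exposure; 5 concentrations. Endpoints by linear interpolation between flanking doses. Not reached: highest tested concentration assigned. Here, GI50 denotes the concentration required for 50% inhibition of growth.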 The source made the active and inactive calls. Rule as the data show it: active = GI50 up to about 1.1 µM and inactive = higher.

Some test systems named below: A498; A549; ACHN; CCRF-CEM; HOP-62; HT-29; Hs-578T; IGROV-1; M14; MCF7; MDA-MB-435; MDA-N; Malme-3M; NCI-H460; PC-3; SF-268; SK-MEL-28; T47D; UO-31.
Common to all, as to assay: growth of human tumour cells (NCI), 48 h

Take `CN(C)CC/C=C1\c2ccccc2Sc2ccc(Cl)cc21`: the GI50 in the assay on A498 was 14.3 µM (inactive); in the assay on A549, 14.6 µM (inactive); in the assay on ACHN, 15.8 µM (inactive); in the assay with CCRF-CEM, 8.2 µM (inactive); in the assay on HOP-62, 14.4 µM (inactive); in the assay with HT-29 it was 4.19 µM (inactive). Moreover, the GI50 is 14.4 µM (inactive) with Hs-578T; 11.9 µM (inactive) with IGROV-1; 3.01 µM (inactive) in the assay on M14; 15.1 µM (inactive) in the assay on MCF7; 10.3 µM (inactive) in the assay on MDA-MB-435; 12.7 µM (inactive) in the assay with MDA-N. Besides, the GI50 with Malme-3M is 12.8 µM (inactive); in the assay on NCI-H460, 11.7 µM (inactive); with PC-3 it was 12.8 µM (inactive); in the assay with SF-268, 14.1 µM (inactive); in the assay with SK-MEL-28 it was 6.21 µM (inactive); in the assay with T47D, 16.3 µM (inactive). Besides, the GI50 with UO-31 is 9.4 µM (inactive).
As to `CC(=O)Nc1ccc2c3c(cc(O)c2c1)N(C(=O)CCCCC(=O)N1CC(CCl)c2c1cc(O)c1cc(NC(C)=O)ccc21)CC3CCl` (stereo not drawn), the GI50 in the assay with A498 was 0.127 µM (active); in the assay on A549 it was 0.147 µM (active); with ACHN it was 0.0308 µM (active); in the assay with CCRF-CEM it was < 0.01 µM (active); with HOP-62 it was 0.177 µM (active); in the assay on HT-29 it was 0.301 µM (active). Besides, the GI50 is 0.423 µM (active) with Hs-578T; 0.352 µM (active) in the assay on IGROV-1; 0.083 µM (active) with M14; < 0.01 µM (active) in the assay on MCF7; 0.186 µM (active) with MDA-MB-435; 0.174 µM (active) with MDA-N. The GI50 was 0.149 µM (active) with Malme-3M; < 0.01 µM (active) in the assay with NCI-H460; 0.526 µM (active) in the assay with PC-3; < 0.0141 µM (active) in the assay with SF-268; 0.27 µM (active) with SK-MEL-28; 0.0129 µM (active) in the assay on T47D. Besides, the GI50 in the assay with UO-31 is 3.53 µM (inactive).
Take `CCOC(=O)C1(Cc2ccc3c(c2)CCC3)Cc2cc3c(cc2C1=O)CCC3` (stereo not drawn): the GI50 in the assay on A498 was > 42.7 µM (inactive); in the assay with A549, 44 µM (inactive); with ACHN, > 69.8 µM (inactive); in the assay with CCRF-CEM, 11.9 µM (inactive); in the assay with HOP-62, > 100 µM (inactive); in the assay with HT-29, 31.6 µM (inactive). Moreover, the GI50 in the assay on Hs-578T was > 100 µM (inactive); in the assay on IGROV-1, > 100 µM (inactive); in the assay on M14, > 57.4 µM (inactive); in the assay with MCF7, 33.7 µM (inactive); with MDA-MB-435 it was 36.3 µM (inactive); with MDA-N it was 41.4 µM (inactive). In addition, the GI50 was > 61.2 µM (inactive) in the assay with Malme-3M; 41.9 µM (inactive) in the assay on NCI-H460; 16.1 µM (inactive) in the assay on PC-3; 98.4 µM (inactive) with SF-268; > 100 µM (inactive) in the assay on SK-MEL-28; 14.2 µM (inactive) in the assay with T47D. In addition, the GI50 in the assay with UO-31 was 42.3 µM (inactive).
On to `CCn1c2ccccc2c2ccc(C3C4C(=O)N(c5cccc6ccccc56)C(=O)C4ON3C(C(N)=O)c3ccccc3)cc21` (stereo not drawn), for which the GI50 was 2.63 µM (inactive) with A498; > 25 µM (inactive) in the assay with A549; > 25 µM (inactive) with ACHN; > 25 µM (inactive) in the assay with HOP-62; 8.24 µM (inactive) with HT-29; > 25 µM (inactive) with Hs-578T. Also, the GI50 was 13.4 µM (inactive) with IGROV-1; 19.1 µM (inactive) in the assay on M14; 8.38 µM (inactive) with MCF7; 10.2 µM (inactive) in the assay on MDA-MB-435; 9.1 µM (inactive) in the assay with MDA-N; > 25 µM (inactive) with Malme-3M. Besides, the GI50 with NCI-H460 is 12.9 µM (inactive); in the assay with PC-3 it was 14.2 µM (inactive); in the assay with SF-268 it was > 25 µM (inactive); in the assay with SK-MEL-28, > 25 µM (inactive); in the assay with T47D, 17.9 µM (inactive); in the assay on UO-31, > 25 µM (inactive).
For the molecule `Cc1ccc([N+](=O)[O-])cc1S(=O)(=O)Nc1ccc(C2=NOC(c3ccccc3O)C2)cc1` (stereo not drawn), the GI50 with A498 was 2.84 µM (inactive); in the assay on A549, 4.97 µM (inactive); with ACHN, 13.1 µM (inactive); with CCRF-CEM it was 8.93 µM (inactive); in the assay on HOP-62 it was 5.12 µM (inactive); in the assay with HT-29 it was 4.61 µM (inactive). For the same molecule, the GI50 in the assay on Hs-578T is 9.98 µM (inactive); with IGROV-1, 7.43 µM (inactive); with M14 it was 2.19 µM (inactive); in the assay with MCF7 it was 3.33 µM (inactive); in the assay with MDA-MB-435, 1.01 µM (active); with MDA-N, 1.56 µM (inactive). Moreover, the GI50 was 3.95 µM (inactive) in the assay with Malme-3M; 4.09 µM (inactive) with NCI-H460; 4.74 µM (inactive) with PC-3; 8.61 µM (inactive) in the assay with SF-268; 12.8 µM (inactive) with SK-MEL-28; 6 µM (inactive) in the assay on T47D. For the same molecule, in the assay on UO-31, the GI50 is < 0.01 µM (active).
With `O=C(c1cc(Cl)cc(Cl)c1)N(C(=S)OC12CC3CC(CC(C3)C1)C2)c1ccccc1`, the GI50 in the assay with A498 is 34.9 µM (inactive); in the assay with A549 it was 42.7 µM (inactive); in the assay with ACHN, 33.2 µM (inactive); in the assay on CCRF-CEM, 5.24 µM (inactive); in the assay with HOP-62 it was 42.7 µM (inactive); with HT-29 it was 39.4 µM (inactive). Moreover, the GI50 in the assay with Hs-578T is 48.9 µM (inactive); in the assay on M14, 22.7 µM (inactive); with MCF7 it was 30.1 µM (inactive); with MDA-MB-435, 42.2 µM (inactive); with MDA-N, 31.8 µM (inactive); with Malme-3M, 49.7 µM (inactive). The GI50 in the assay with NCI-H460 was 35.3 µM (inactive); with PC-3, 35.2 µM (inactive); in the assay with SF-268, 52.8 µM (inactive); in the assay on SK-MEL-28, 59.4 µM (inactive); in the assay on T47D it was 61.2 µM (inactive); in the assay with UO-31, 25.1 µM (inactive).
For the molecule `CC1(C)C2C=CC1(C)C1(CC2)OCCO1` (stereo not drawn), the GI50 in the assay on A498, in the assay on ACHN, in the assay on CCRF-CEM, in the assay on HOP-62, in the assay with HT-29 and in the assay on Hs-578T was > 100 µM (inactive) in each case. Besides, the GI50 with IGROV-1, in the assay on M14, in the assay on MCF7, in the assay with MDA-MB-435, with MDA-N and in the assay on Malme-3M was > 100 µM (inactive) in each case. Also, the GI50 in the assay on NCI-H460, in the assay on PC-3, with SF-268, in the assay on SK-MEL-28, in the assay on T47D and in the assay with UO-31 was > 100 µM (inactive) each time.
On to `Nc1nccc(NCC2(CO)CC(OCc3ccccc3)C2)n1` (stereo not drawn), for which the GI50 in the assay with A498, in the assay with A549, with ACHN, in the assay with CCRF-CEM, in the assay with HOP-62 and with HT-29 was > 100 µM (inactive) throughout. For the same molecule, the GI50 in the assay on Hs-578T, with IGROV-1, in the assay on MCF7, with MDA-MB-435, in the assay on MDA-N and in the assay on Malme-3M was > 100 µM (inactive) in each case. For the same molecule, the GI50 in the assay with NCI-H460 was > 100 µM (inactive); with PC-3 it was > 100 µM (inactive); in the assay on SF-268 it was > 10 µM (inactive); with SK-MEL-28, > 100 µM (inactive); with T47D, 7.98 µM (inactive); in the assay with UO-31, 84.5 µM (inactive).
In the case of `COC(=O)C(CCSc1ccccc1)C(=O)OC`, the GI50 in the assay on A498, in the assay with A549, in the assay with ACHN, with CCRF-CEM, with HOP-62 and in the assay with HT-29 was > 100 µM (inactive) throughout. In addition, the GI50 in the assay on Hs-578T was 1.58 µM (inactive); in the assay on IGROV-1 it was > 100 µM (inactive); in the assay with M14, > 100 µM (inactive); with MCF7, > 100 µM (inactive); with MDA-MB-435, > 100 µM (inactive); in the assay on MDA-N, > 100 µM (inactive). Further, the GI50 is 10.8 µM (inactive) in the assay on Malme-3M; > 100 µM (inactive) in the assay on NCI-H460; > 100 µM (inactive) in the assay with PC-3; > 100 µM (inactive) in the assay with SK-MEL-28; > 100 µM (inactive) with T47D; > 100 µM (inactive) in the assay with UO-31.
Turning to `Cc1cc(N(CCOS(C)(=O)=O)CCOS(C)(=O)=O)ccc1/C=N/c1ccc(-c2csc(-c3ccccc3)n2)c(Cl)c1`, the GI50 in the assay with A498 is 1.6 µM (inactive); in the assay with A549 it was 1.95 µM (inactive); in the assay on ACHN it was 0.575 µM (active); with CCRF-CEM, 1.1 µM (active); with HOP-62, 6.05 µM (inactive); in the assay on HT-29, 9.91 µM (inactive). The GI50 with Hs-578T was 18 µM (inactive); with IGROV-1, 8.2 µM (inactive); in the assay with M14, 8.67 µM (inactive); in the assay on MCF7 it was 4.27 µM (inactive); with MDA-MB-435, 9.79 µM (inactive); in the assay with MDA-N, 3.78 µM (inactive). Moreover, the GI50 in the assay with Malme-3M was 11.9 µM (inactive); with NCI-H460 it was 0.0647 µM (active); in the assay on PC-3 it was 14.8 µM (inactive); in the assay with SF-268 it was 8.63 µM (inactive); in the assay on SK-MEL-28, 21.6 µM (inactive); with T47D, 15.4 µM (inactive). Also, in the assay with UO-31, the GI50 is 9.75 µM (inactive).
Consider `COc1c2ccoc2cc2oc(=O)ccc12` [BERGAPTEN], for which the GI50 with A498, in the assay with A549, in the assay on ACHN, with CCRF-CEM, in the assay with HOP-62 and in the assay with HT-29 was > 100 µM (inactive) each time. The GI50 in the assay with Hs-578T is 65.5 µM (inactive); in the assay on IGROV-1 it was > 100 µM (inactive); in the assay on M14, > 100 µM (inactive); with MCF7 it was > 100 µM (inactive); in the assay with MDA-MB-435, > 100 µM (inactive); in the assay with MDA-N, > 100 µM (inactive). Further, the GI50 with Malme-3M, with NCI-H460, in the assay on PC-3, in the assay on SF-268, in the assay with SK-MEL-28 and with T47D was > 100 µM (inactive) each time.
